The record followed here is PubChem BioAssay (NCI).

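1) Cells in 96-well plates. 2) Compound, 48 h, 5 concentrations. 3) Linear interpolation between surrounding doses. 4) Unreached endpoint = highest concentration. GI50: concentration for 50% inhibition of growth. TGI is the concentration that stops growth completely.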

What all share (assay): growth of human tumour cells (NCI), 48 h
In assay [1] the test system is M14 melanoma.
The test system of assay [2] is BT-549 breast.
For assay [3], the system named is NCI/ADR-RES ovarian.
The subject of assay [4] is TK-10 renal.
Assay [5] deals with SNB-19 CNS.
In assay [6] the test system is PC-3 prostate.
Assay [7] deals with SK-MEL-2 melanoma.
The subject of assay [8] is HCT-116 colon.
The subject of assay [9] is K-562 leukemia.
The test system of assay [10] is HL-60(TB) leukemia.

In the case of `Cc1ccc(Cl)cc1Nc1nc(C(F)(F)F)ccc1C(=O)Oc1ccc(Cl)cc1`, the GI50 was 18.1 µM in assay [1]; 15.6 µM in assay [2]; 15.6 µM in [3]; 5.57 µM in assay [4]; 9.42 µM in assay [5]; 5.85 µM in assay [6]. The GI50 was 17.7 µM in assay [7], 4.45 µM in assay [8] and 4.37 µM in [9]. The TGI was greater than 100 µM in assay [1]; 36.3 µM in assay [2]; 46.6 µM in assay [3]; 18.6 µM in [4]; greater than 100 µM in assay [5]; 21.1 µM in assay [6]. The TGI in [7] is greater than 100 µM; in assay [8] it was 20 µM; in assay [9] it was 15 µM.

Turning to `O=C(O)/C(Cl)=C(/Cl)C(=O)Nc1cccc(Cl)c1`, the TGI is 43.2 µM in assay [1]; 34.1 µM in assay [2]; 22.7 µM in assay [10]; 33.8 µM in assay [4]; greater than 92.5 µM in assay [5]; 38.5 µM in assay [6]. The TGI in [7] is 49.8 µM; in assay [8], 31.8 µM; in assay [9], 40.1 µM.

On to `CCC(=O)O[C@@H]1C2C(OC(C)=O)C34COC(C)([C@@H]3C3C(C[C@]3(C)OC(C)=O)[C@@H](OC(=O)c3ccccc3)C4=O)[C@H](OC(C)=O)[C@@]2(OC(C)=O)C[C@@H]1C` (stereo partly specified), for which the TGI in [1] is greater than 100 µM; in [10] it was 30 µM; in assay [4], 46 µM; in assay [5], 45.8 µM; in [7], greater than 100 µM; in assay [8] it was greater than 100 µM.

For the compound `Cc1ccccc1NC(=O)c1[nH]c(=S)nc(N)c1-c1ccccc1C`, the TGI in assay [1], in assay [10], in assay [4], in [5], in assay [7] and in [8] was greater than 100 µM each time. This compound yielded a TGI in [9] greater than 100 µM.

For `C/C=C/C1(NS(=O)(=O)c2ccc(C)cc2)CCC(C(C)(C)C)CC1` (stereo unspecified), the TGI was 35.1 µM in assay [1]; 44.5 µM in assay [10]; 94.6 µM in assay [4]; greater than 100 µM in assay [5]; 34.8 µM in assay [7]; 36 µM in [8]. In addition, the TGI in [9] was 99.5 µM.

With `COC(=O)/C(C#N)=C1\N=NNN1CCCc1ccccc1`, the TGI in assay [1], in assay [4], in assay [5], in [8] and in [9] was greater than 100 µM in each case.

Regarding `COc1nc2c(nc(N)n2C2OC(CO)C(O)C(O)C2O)c(=O)n1C` (stereo unspecified), the TGI in [1], in assay [10], in assay [4], in [5], in assay [8] and in [9] was greater than 100 µM throughout.

For `CCCNc1nc(-c2ccc(OC)cc2)nc2ccccc12`, the GI50 was 10.6 µM in assay [1]; 11 µM in assay [3]; 13.2 µM in assay [4]; 34.8 µM in assay [5]; 14.9 µM in [6]; 35.2 µM in assay [7]. Further, the GI50 in assay [8] was 6.85 µM; in assay [9], greater than 100 µM. Besides, the TGI in assay [1] is 24.7 µM; in assay [3] it was 36.2 µM; in assay [4] it was 26.7 µM; in assay [5], greater than 100 µM; in [6] it was 46.5 µM; in [7] it was greater than 100 µM. Further, the TGI in assay [8] was 27.7 µM; in assay [9] it was greater than 100 µM.

Turning to `O=C(NC(=S)NS(=O)(=O)c1ccc(N2N=C3c4ccccc4CC3C2c2cccs2)cc1)c1ccccc1` (stereo unspecified), the GI50 in assay [1] was 21.5 µM; in assay [2] it was 21.6 µM; in assay [3], 18.8 µM; in assay [5], 46.3 µM; in assay [6] it was 29.7 µM; in assay [7], 44 µM. Also, the TGI in [1] is 58.9 µM; in assay [2], greater than 100 µM; in assay [3], 67.1 µM; in [5] it was greater than 100 µM; in assay [6], greater than 100 µM; in [7], greater than 100 µM.

Consider `Cc1cc2c(=O)cc(-c3ccc(Cl)cc3)oc2c(C(=O)O)c1C`, for which the TGI in assay [1], in assay [4], in [5], in [7], in assay [8] and in assay [9] was greater than 100 µM in each case.

In the case of `O=C(/C=N/O)c1c(-c2ccccc2)[nH]c(-c2ccccc2)c1-c1ccccc1`, the TGI in [1] was 73.6 µM; in assay [2], 11.3 µM; in assay [10] it was greater than 100 µM; in [3], 25.5 µM; in assay [4] it was 40.8 µM; in assay [5], 34.2 µM. Further, the TGI was 24 µM in assay [7], 72.6 µM in assay [8] and greater than 100 µM in assay [9].

Turning to `Cc1cc(Cl)ccc1N1C(=O)C(=O)C(c2nc3ccccc3s2)C(=O)C1=O`, the TGI in assay [1], in assay [10], in assay [4], in assay [5], in assay [7] and in assay [8] was greater than 100 µM throughout. In assay [9], this compound registered a TGI greater than 100 µM.

For the compound `O=[N+]([O-])c1ccc2[nH]cc(-c3c4ccccc4cc4[nH]c5ccc([N+](=O)[O-])cc5c34)c2c1`, the GI50 is 1.67 µM in [1]; 2.29 µM in assay [2]; 2.91 µM in assay [3]; 2.59 µM in [4]; 2.88 µM in assay [5]; 1.9 µM in [6]. In addition, the GI50 in [7] was 2.18 µM; in assay [8], 2.16 µM; in assay [9] it was 3.5 µM. Further, the TGI in [1] was determined as 3.22 µM; in assay [2], 5.94 µM; in assay [3], 11.5 µM; in [4], 6.79 µM; in assay [5], 9.13 µM; in assay [6], 4.43 µM. In addition, the TGI in assay [7] is 5.34 µM; in assay [8], 5 µM; in assay [9], greater than 100 µM.

Take `COc1ccccc1NC(=O)C1=C(C)NC(C)=C(C(=O)Nc2ccccc2OC)C1c1ccc(C(C)C)cc1`: the TGI in assay [1] was greater than 100 µM; in [10], greater than 1 µM; in [4], greater than 100 µM; in [5], greater than 100 µM; in assay [7] it was greater than 100 µM; in assay [8], greater than 100 µM. The compound further yielded a TGI in assay [9] greater than 1 µM.

With `O=C(/C=C/c1ccccc1F)C(c1ccccc1)c1ccccc1`, the TGI is 6.81 µM in [1]; 11.8 µM in assay [10]; 14.6 µM in assay [4]; 5.46 µM in [5]; 6.15 µM in assay [7]; 6.4 µM in assay [8]. In [9], this compound displayed a TGI of 9.74 µM.

`C[Si](C)(C)/C(Br)=C\CCN1C(=O)CCC1O` (stereo unspecified): the TGI in assay [1], in [4], in assay [5], in [7], in assay [8] and in assay [9] was greater than 100 µM each time.

Turning to `CCCCOC(=O)N[C@H]1CCc2cc(OC)c(OC)c(OC)c2-c2ccc(SC)c(=O)cc21`, the TGI in assay [1] is 15.6 µM; in assay [10], 0.398 µM; in assay [4] it was 52.4 µM; in assay [5], 73 µM; in assay [6], greater than 81 µM; in assay [7], 2.02 µM. In addition, the TGI is 1.18 µM in assay [8] and 65.1 µM in [9].

On to `Cc1ccc(S(=O)(=O)N2CCCCC2CCO)cc1` (stereo unspecified), for which the TGI in [1], in assay [10], in assay [4], in assay [5], in [7] and in assay [8] was greater than 100 µM throughout. The TGI in assay [9] was greater than 100 µM.

As for `O=C1C(c2ccccc2)=C(c2ccccc2)C(c2ccccc2)/C1=C1\C(=O)C(c2ccccc2)=C(c2ccccc2)C1c1ccccc1` (stereo unspecified), the TGI in assay [1], in assay [10], in assay [4], in assay [7] and in [8] was greater than 100 µM each time.

In the case of `CCOc1ccc(NC(=O)C2=C(C)NC(C)=C(C(=O)Nc3ccc(OCC)cc3)C2c2ccc([N+](=O)[O-])cc2)cc1`, the TGI is greater than 100 µM in assay [1]; 52.7 µM in [10]; greater than 100 µM in [4]; greater than 100 µM in [5]; 45.7 µM in assay [7]; greater than 100 µM in assay [9].

As for `CC(=O)O[C@H]1CC[C@@]2(C)C(=CC[C@@H]3C2CC[C@]2(C)Nc4oncc4CC32)C1` (stereo partly specified), the TGI was greater than 100 µM in [1]; 31.9 µM in assay [10]; greater than 100 µM in [4]; greater than 100 µM in assay [7]; 30.4 µM in assay [8]; 21.1 µM in assay [9].

For `Cc1cc(Cl)ccc1NC(=O)C1C(=O)N(c2ccc(Cl)cc2C)C(=O)/C1=N\N` (stereo unspecified), the TGI in assay [1] was greater than 100 µM; in [10], greater than 100 µM; in assay [4], 99.3 µM; in assay [5], greater than 100 µM; in [7], 90.9 µM; in assay [8] it was greater than 100 µM. Also, the TGI in [9] was greater than 100 µM.

With `Cc1cccc(C)c1NC(=O)C(=O)C1C(=O)N(c2ccccc2)N=C1N` (stereo unspecified), the TGI in assay [1], in [10], in assay [4], in [5], in [7] and in assay [8] was greater than 100 µM each time. This compound also showed a TGI in [9] greater than 100 µM.

`Cc1ccccc1NC(=O)NC(CC(N)=O)c1ccc2c(c1)nc(-c1cccc(Oc3ccc(C(C)(C)C)cc3)c1)n2CCCN1CCCCC1C` (stereo unspecified): the GI50 in assay [1] is 1.83 µM; in assay [2], 13.3 µM; in assay [3] it was 28 µM; in [4], 4.28 µM; in [5] it was 1.97 µM; in assay [6], 3.94 µM. Also, the values for the GI50 in assay [7] and in assay [8] were 11.1 µM and 1.71 µM, respectively. Also, the TGI in assay [1] is 3.44 µM; in [2], 26.1 µM; in assay [3], greater than 85.9 µM; in assay [4], 9.01 µM; in [5], 4.27 µM; in [6], 12 µM. Besides, the TGI came to 23.3 µM in [7] and 3.16 µM in assay [8].

`N#CC(C#N)=C1NC(=O)C(c2ccccc2)C(=O)N1` (stereo unspecified): the TGI in [1], in assay [10], in [4], in assay [5], in assay [8] and in assay [9] was greater than 100 µM each time.

With `O=C(CC1C(=O)Nc2ccccc2S1=O)Nc1cccc(Cl)c1` (stereo unspecified), the TGI is greater than 65 µM in [1]; 77.6 µM in [2]; greater than 64.2 µM in assay [10]; 49.8 µM in assay [3]; greater than 100 µM in assay [4]; greater than 88.9 µM in [5]. Further, the values for the TGI in assay [7], in [8] and in [9] were greater than 100 µM, greater than 67.3 µM and 29.2 µM, respectively.

Regarding `COc1cc(/C=C/C(=O)c2ccc(Nc3nc(Nc4ccc(F)cc4)nc(Nc4ccc(F)cc4)n3)cc2)cc(OC)c1OC`, the GI50 in assay [1] is 6.55 µM; in assay [10], 1 µM; in assay [3], 4.69 µM; in assay [4], 35.8 µM; in [5] it was 76.6 µM; in assay [6], 3.18 µM. In addition, the results for the GI50 in assay [7], in [8] and in [9] were 3.99 µM, 2.56 µM and 3 µM, respectively. Further, the TGI in [1] was 90.8 µM; in assay [10], greater than 100 µM; in [3] it was greater than 100 µM; in [4] it was greater than 100 µM; in [5], greater than 100 µM; in assay [6], greater than 100 µM. Further, the results for the TGI in [7], in assay [8] and in assay [9] were 33.2 µM, greater than 100 µM and greater than 100 µM, respectively.
